Assay results from patent publication US12269859B2, “Synthetic immune receptors and methods of use thereof” (Angeles Therapeutics, Inc., priority 2016, dated 2025).

Experiments:
[1] = system: RAJI cells; assay: RAJI xenograft model of lymphoma in NSG mice (survival); type: in vivo
Experimental: In vivo efficacy of SIR targeting CD19. […] SIR constructs and Gluc-PAC-G07 control construct encoding non-secretory form of Guassia Luciferase. Approximately half the cells were selected with puromycin while the other half was expanded without puromycin selection. NSG mice (Jackson Lab) were sub-lethally irradiated at a dose of 175 cGy. Approximately 24 hours post irradiation (day 2), mice were injected with 2.5×10^4 RAJI cells via tail-vein. […] Control mice (n=5) received no T cells or uninfected T cells. Mice were given human IL2 (400 IU intraperitoneally) on alternate days till the death of all mice in control group.
Approximately half the cells were selected with puromycin while the other half was expanded without puromycin selection. NSG mice (Jackson Lab) were sub-lethally irradiated at a dose of 175 cGy. Approximately 24 hours post irradiation (day 2), mice were injected with 2.5×10^4 RAJI cells via tail-vein. […] Control mice (n=5) received no T cells or uninfected T cells. Mice were given human IL2 (400 IU intraperitoneally) on alternate days till the death of all mice in control group.
SIR construct. NSG mice (Jackson Lab) were sub-lethally irradiated at a dose of 175 cGy. Approximately 24 hours post irradiation (day 2), mice were injected with 2.5×10^4 RAJI cells via tail-vein. […] SIR encoding lentivirus. Control mice (n=5) were injected with 5 million uninfected T cells or given no T cells.
SIR constructs. […] SIR were included as controls. NSG mice (n=5) were sub-lethally irradiated at a dose of 175 cGy. 24 hours post irradiation (day 2), mice were injected with 2.5×10^4 RAJI cells via tail-vein. […] Mice were given human IL2 (400 IU i.p.) on alternate days till the death of all mice in control group.
Human peripheral blood T cells isolated using CD3 magnetic beads were infected with lentiviruses expressing the indicated SIR constructs targeting Lym1 and Lym2. On day 1, the NSG mice were sub-lethally irradiated at a dose of 175 cGy. 24 hours post irradiation (day 2), mice were injected with 25×10^3 Raji cells intravenously. On day 3, the mice were treated intravenously with 10 million indicated CAR-T cells. Beginning on day 4, mice were injected with human IL-2 i.p. at a dose of 400 IU/mice every alternate day after the injection CAR-T cells till the death of all mice in control group.

[2] = system: Protein L magnetic beads; assay: Jurkat NFAT-GFP assay, coculture with Protein L magnetic beads; type: cell-based, human; details: coculture with Protein L beads for 18 hours
Description: Use of Protein L microbeads and Protein L expressing cells for stimulation of SIR and CAR expressing cells. A number of Human cell-based artificial antigen-presenting cells for cancer immunotherapy have been described. One approach for ex vivo expansion of CAR^+ and SIR^+ T cells involves the use of irradiated artificial antigen presenting cells (aAPC) expressing the targeted tumor associated antigen (TAA). However, this approach requires that the aAPC be engineered to express each individual TAA. To overcome this problem, a universal antigen presenting cell was developed. Protein L is an immunoglobulin (Ig) light chain-binding protein expressed by some strains of the anaerobic bacterial species Peptostreptococcus magnus. […] As an alternative to expressing individual TAAs on aAPC, experiments were performed to determine if Protein L could activate CAR^+ T and SIR^+ T cells independent of specificity. In the initial experiments, coculture of Jurkat-NFAT-GFP cells expressing different CAR and SIR constructs were tested to determine whether Protein L magnetic beads would lead to induction of GFP expression. Pierce Protein L magnetic beads (cat. #88849; concentration 10 mg/ml) were purchased from ThermoFisher and diluted 1:10 in PBS. Approximately 10 μl of diluted beads were added per well in a U-bottom 96-well plate. […] CAR were added to the wells and cocultured with the beads for 18 hours. […]

[3] = system: 293-Protein L-II cells; assay: Jurkat NFAT-GFP assay, coculture with 293-Protein L-II cells; type: cell-based, human; details: co-culture with 293-Protein L-II cells approximately 18 hours
Description: Generation of human aAPC expressing Protein L on cell surface. Lentiviral chimeric antigen receptor (CAR) constructs were generated expressing different regions of Protein L in fusion with hinge and transmembrane regions of human CD8, 41BB costimulatory domain and CD3z chain. The nucleotide sequence of Protein L was codon optimized for optimal expression in human cells. It needs to be noted that the 41BB costimulatory domain and CD3z chain are not essential for the function of Protein L for the purpose of this invention. The vectors also carried N-terminal signal peptides derived from either human CD8 or IgH to allow cell surface transport of Protein L. The complete nucleic acid and amino acid sequence of the vectors are provided in SEQ ID NO: 888 and SEQ ID NO: 889.
Next, 293 cells were infected with a lentivirus vector encoding the Protein L-II construct (072716-K01) and polyclonal population of cells stably expressing Protein L were generated following selection with 750 ng/ml puromycin. […] SIR constructs. […] The use of Protein-L expressing aAPC is, however, not limited to above type of cells. These cells can serve as universal aAPC for any immune effector cell which carries an antigen binding domain derived from a suitable κ chain containing antibody that can bind to Protein L.

[4] = system: RAJI cells; assay: Jurkat NFAT-GFP assay, coculture with RAJI cells; type: cell-based, human; details: SIR/CAR-expressing Jurkat-NFAT-GFP cells cocultured with RAJI cells
Experimental: (B) Induction of NFAT promoter driven GFP expression. The control vector- and SIR-expressing Jurkat-NFAT-GFP cocultured for 4-24 hours with the target antigen-expressing cell line (described above) and their ability to bind to the target antigen is assayed by measuring induction of GFP expression using Flow Cytometry. Cellular supernatant is collected and assayed for the induction of cytokines (e.g., IL2).
Jurkat NFAT-GFP Assay For Synthetic Immune Receptors. The Jurkat-NFAT-GFP cells are engineered in such a way that the IL-2 promoter, which carries NFAT binding sites, is cloned upstream of the GFP gene. These cells have been used to study signaling via TCR and CAR. […]
Induction of GFP expression by coculturing of Jurkat-NFAT-GFP cells expressing different SIR constructs and the different target cells was studied essentially as described previously (Wu, Roybal, Puchner, Onuffer, & Lim, 2015). GFP expression was monitored by FACS analysis. […] The names of different SIRs, their SEQ ID NOs, component antigen binding domains and TCR chains can be determined by reference to Tables 7A-7H. […] The signs +/−, +, 2+ etc. after the name of the cell lines indicate the relative degree of positivity on the Jurkat-NFAT-GFP assay as measured by the % GFP positive cells after culture of the SIR expressing Jurkat-NFAT-GFP cells with that cell line.

Cc1sc2c(c1C)C(c1ccc(Cl)cc1)=N[C@@H](CC(=O)OC(C)(C)C)c1nnc(C)n1-2 [JQ1(+), reference compound]
persistence of SIR-T cells and survival vs vehicle (in words) ([1]; 50 mg/kg twice daily intra-peritoneal, mice receiving SEQ ID NO: 1200 SIR-T cells): longer persistence of SIR-T cells and survive longer

COc1ccc(-c2cc3c(C)nc(N)nc3n([C@H]3CC[C@H](OCCO)CC3)c2=O)cn1 [PF-04691502, reference compound]
median survival of mice given SIR-T cells expanded in presence vs absence of the inhibitor (in words) ([1]; SIR-T (SEQ ID NO:900) expanded with 0.10 μM to 0.5 μM): higher

CD8SP-FMC63(vL-vH)-Myc-BBz-T2A-PAC [SEQ ID NO:4501, reference compound]
induction of GFP expression (in words) [2]: modest induction of GFP expression
induction of GFP expression (in words) [3]: strong induction of GFP expression

pSBbi-puro-FMC63vL-V5-[TCRb-KACIAH]-F-P2A-FMC63vH-MYC-[TCRa-CSDVP]-F-F2A [SEQ ID NO:875]
induction of GFP expression / NFAT signaling (in words) [4]: showed GFP induction
